Key:
PARP = assay: Western blot for PARP cleavage (caspase activation) and Survivin levels, HeLa; format: cell-based, human; settings: 12 hours
Experimental: (§1) FIG. 12 illustrates S12 induction of caspase activation in HeLa cells. (A) HeLa cells were incubated with DMSO (control), S12, Taxol, nocodazole (Noco), or etoposide (Etop) for 12 hours. The cell lysates were analyzed by Western blot using the anti-PARP antibody (top panel), the anti-α-tubulin antibody (middle panel), or the anti-Survivin antibody (bottom panel). (B) S12 causes cell death in a cell cycle dependent manner. HeLa cells, either unsynchronized or synchronized by thymidine treatment were incubated either with S12 or DMSO. Cell death was quantitated by trypan blue exclusion assay.
(§2) We examined whether S12 treatment leads to apoptosis. HeLa cells were incubated with S12 at the concentration of 50 μg/ml or with DMSO alone for 12 hours. To compare the effect with that of other therapeutic agents, HeLa cells were also treated with Taxol, nocodazole, or etoposide, respectively. The cell lysates were collected and subjected to Western blot analysis using an anti-PARP antibody. […] We also re-probed the blot with an anti-Survivin antibody. […] These observations, combined with the earlier findings, indicate that the Survivin-targeting molecule S12 can block mitosis and cause apoptosis.

[1] = as above; format: cell-based, human; settings: 50 μg/ml, 12 hours, anti-Survivin Western blot
Experimental: as §1, §2

HeLa cells = assay: Trypan blue exclusion cell death, synchronized vs unsynchronized HeLa; format: cell-based, human
Experimental: as §1
We wanted to determine if the Survivin-targeting compounds induce cell death during mitosis but could not affect the phenotype or influence in other stages of the cell cycle. To this end, we blocked HeLa cells in the S phase by thymidine treatment and examined whether the cells were susceptible to cell death induced by S12. […] Thus, the current data support the notion that S12 induced death of cells is a consequence of mitotic arrest rather than general cytotoxicity and indicate a unique cell cycle specific functionality of Survivin in this process.

[2] = system: AsPC1 pancreatic cancer cells; assay: MTT tumor cell proliferation assay, AsPC1; format: cell-based, human; settings: AsPC1, 5, 10, 20, or 50 μg/ml for 48 hours
Experimental: FIG. 3 illustrates the effect of S2 and its analogs on tumor cell proliferation. Cells were treated with DMSO or Survivin targeting molecules at the indicated concentration for 48 hours. The percentage of viable cells was evaluated by MTT assay. (A) AsPC1; (B) HeLa; (C) SKBR3; (D) DAOY.
FIG. 18 illustrates the effect of SBDO3, SN2, or SDC1 on tumor cell proliferation. (A) AsPC1 cells were treated with DMSO or the Survivin targeting molecules SBDO3 or SN2 at the indicated concentration for 48 hours. (B) SKBR3 cells were treated with DMSO or SDC1 for 48 hours. The percentage of viable cells was evaluated by MTT assay.
S2 and its analogs (S10, S11, S12, and S13) were tested for the ability to inhibit tumor cell proliferation by MTT assay. The AsPC1 pancreatic cancer cells were treated with DMSO, a control molecule SC2, or the Survivin-targeting compounds at the concentration of 5, 10, 20, or 50 μg/ml for 48 hours. The number of viable cells was evaluated by MTT.
SBDO3, SN2 and SDC1 were tested for the ability to inhibit tumor cell proliferation by MTT assay. The AsPC1 pancreatic cancer cells were treated with DMSO or the Survivin-targeting compounds at the concentration of 5, 10, 20, or 50 μg/ml for 48 hours. The number of viable cells was evaluated by MTT.

Sur-V89Y = target: T1, Sur-V89Y (Homo sapiens, UniProt O15392, V89Y); assay: ITC binding to Survivin mutant V89Y; settings: in words
T1 construct: made in house; host or cells: bacteria
Experimental: FIG. 5 illustrates an analysis of S12-Survivin binding with isothermal titration calorimetry (ITC). Single-site point mutagenesis was performed to create the Survivin mutants F86A and V89Y. The native and the mutant proteins were produced and purified from bacteria.
In order to examine the specificity of the binding, we generated point mutations on the Survivin protein at the site presumably targeted by S12. The two mutations were substitutions of phenylalanine 86 with alanine (F86A) and valine 89 with tyrosine (V89Y). These two altered sites are also adjacent to the interface involved in dimerization of the Survivin protein. Based on structural analyses, we predict that alterations of either of these two amino acid residues may abolish the binding of S12 without affecting the overall structure of the Survivin protein.

T1 sequence (O15392 whole entry V89Y): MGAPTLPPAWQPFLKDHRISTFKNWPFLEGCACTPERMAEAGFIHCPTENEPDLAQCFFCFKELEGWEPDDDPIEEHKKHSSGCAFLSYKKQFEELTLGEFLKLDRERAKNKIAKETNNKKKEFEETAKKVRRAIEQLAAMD

O=C(CC1(O)C(=O)Nc2ccc(Br)cc21)c1ccc2c(c1)OCO2 (stereo not shown) [S12]
cleavage of PARP (caspase activation) (PARP; 50 μg/ml, Western blot): detected | apoptosis induction compared with other agents (PARP; at the concentrations employed): more potent in inducing apoptosis than Taxol, nocodazole, or etoposide | overall Survivin levels [1]: did not significantly affect | cell death of S phase-arrested cells (HeLa cells; HeLa blocked in S phase by thymidine): insensitive | cell death of unsynchronized cells (HeLa cells; unsynchronized HeLa): underwent apoptosis | inhibition of cell proliferation / cell viability [2]: can inhibit cell proliferation and reduce cell viability in a dose-dependent manner | binding to mutant Sur-V89Y (Sur-V89Y): did not bind

Source: patent US8710068B2, “Method of treating cancer using a survivin inhibitor” (The Trustees Of The University Of Pennsylvania, priority 2009, dated 2014)
